Tests used:
Assay type in all cases: cell-based, human
[1] = system: mPGES-1; experiment: mPGES-1 expression in transfected A549 cells (qRT-PCR, Western blot); conditions: IL-1β 24 h, then 24 h stimulus-free medium
Experimental: (§1) CUGBP1 and GW182 were transiently depleted using siRNA oligonucleotides. 24 h prior to transfection, A549 cells were seeded at a density of 5×10^5 cells/well in a 6-well plate. 20 pmol/μl siRNA oligonucleotides were transfected using Lipofectamine 2000N (Invitrogen, Karlsruhe, GER) according to manufacturer's instructions. For GW182 knockdown, MISSION® siRNA SAS1_Hs01_00244664 (Sigma-Aldrich, Darmstadt. GER) were used, respectively. For CUGBP1 knockdown a previously published siRNA (5′-GCUGUUUAUUGGUAUGAUU-3′; SEQ ID NO:5) was used for our experiments. As control, a siRNA with an unspecific sequence was used (5′-UCUCUCACAACGGGCAUUU-3′; SEQ ID NO: 6). Cells were harvested 24 h and 48 h after transfection. The efficiency of CUGBP1 and GW182 knockdown was determined by qRT-PCR, Western blot and immunofluorescence staining.
24 h prior to transfection, A549 cells were seeded at a density of 5×10^5 per well in a 6-well plate. 20 pmol/μl miRIDIAN miR-574-5p mimics (HM10794, Sigma-Aldrich, Darmstadt, GER) or negative control (HMC0002, Sigma-Aldrich, Darmstadt, GER) were transfected using Lipofectamine 2000® according to the manufacturer's instructions. In the same way, the A549 cells were transfected with 40 pmol/μl miR-574-5p-LNA™ inhibitor (4101451-001) or negative control (199006-001, Exiqon, Kopenhagen, DEN) for the knockdown of miR-574-5p. The transfection efficiency was determined by qRT-PCR.
(§2) 1 μg of DNase-treated RNA was used for reverse transcription using High-Capacity RNA-to-cDNA Kit (Applied Biosystems, ThermoFisher Scientific, Waltham, USA) according to manufacturer's instructions. […] 1 μl cDNA (1:2 diluted) was used per reaction. β-Actin was used as endogenous control to normalize variations in cDNA quantities in different samples.
(§3) To obtain a whole cell lysate, A549 cells were lysed in T-PER™ tissue protein extraction reagent (Life Technologies, ThermoFisher Scientific, Waltham, USA) for 30 min at 4° C. […] The protein content was determined by Bradford assay (BioRad Laboratories, Hercules, USA). […]

[2] = system: COX-2; experiment: COX-2 expression in transfected A549 cells (qRT-PCR, Western blot); conditions: mRNA and protein
Experimental: as §1, with “Cells were harvested 24 h and 48 h after transfection.” left out
as §2, §3

[3] = system: A549 cells; experiment: MTT cell proliferation assay; conditions: data not shown
Experimental: For the detection of viable cells, an MTT (3-(4,5-dimethylthiazol-2-yl)-2,5-diphenyltetrazolium bromide) tetrazolium (Carl Roth, Karlsruhe, GER) reduction assay was performed. 24 h prior transfection, A549 cells were seeded at a density of 1×10^4 cells per well in 96-well plates. For the MTT reduction assay, 20 μl of 5 mg/ml MTT (in PBS) was added to the cells in culture and so incubated for 4 h. The medium was removed and 100 μl DMSO (Carl Roth, Karlsruhe, GER) was added. The quantity of formazan was measured by recording changes in the absorbance at 570 nm using a plate reading spectrophotometer. As a reference the wavelength of […] was used to correct for nonspecific background.

Substance: 5′-GCUGUUUAUUGGUAUGAUU-3′ (listed as RNA, chemistry not given here) [ΔCUGBP1]
- mPGES-1 protein expression ([1]; Western blot): strongly upregulated
- mPGES-1 3′UTR isoform expression ([1]; qRT-PCR): further increases
- mPGES-1 mRNA expression ([1]; qRT-PCR): significantly upregulates
- COX-2 level [2]: uninfluenced
- IL1β-induced cell proliferation of A549 cells [3]: enhanced

— patent US20200123620A1, “MiRNA-574-5p AS A BIOMARKER FOR STRATIFICATION OF PROSTAGLANDIN E-DEPENDENT TUMORS” (priority 2017, published 2020)
